Results reported in publication PMC12586182 (Frontiers in Oncology, 2025).

What was measured:
Assay in all cases: Kinase panel profiling at 1 µmol/L (mobility shift assay, Carna)
Type in all cases: biochemical
Settings in all cases: 1 µmol/L of BTK inhibitor
SGK3 = target: T1, SGK3 (Homo sapiens, UniProt Q96BR1)
T1 construct: purchased Carna Biosciences
T1 sequence (Q96BR1 1-496): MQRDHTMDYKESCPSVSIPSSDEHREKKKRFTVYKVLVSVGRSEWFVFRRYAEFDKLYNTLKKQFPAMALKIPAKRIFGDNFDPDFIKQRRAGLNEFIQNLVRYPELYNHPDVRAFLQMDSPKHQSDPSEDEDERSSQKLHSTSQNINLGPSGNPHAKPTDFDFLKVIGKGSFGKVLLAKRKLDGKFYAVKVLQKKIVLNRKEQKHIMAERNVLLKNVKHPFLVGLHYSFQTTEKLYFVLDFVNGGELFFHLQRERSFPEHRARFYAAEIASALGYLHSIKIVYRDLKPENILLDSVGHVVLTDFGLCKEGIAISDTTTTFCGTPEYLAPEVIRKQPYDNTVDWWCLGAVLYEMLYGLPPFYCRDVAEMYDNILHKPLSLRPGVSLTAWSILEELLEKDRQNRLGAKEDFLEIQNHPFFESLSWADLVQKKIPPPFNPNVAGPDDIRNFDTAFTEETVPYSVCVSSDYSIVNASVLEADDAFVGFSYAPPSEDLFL

PKD2 = target: T2, PKD2 (Homo sapiens, UniProt Q9BZL6)
T2 construct: purchased Carna Biosciences
T2 sequence (Q9BZL6 1-878): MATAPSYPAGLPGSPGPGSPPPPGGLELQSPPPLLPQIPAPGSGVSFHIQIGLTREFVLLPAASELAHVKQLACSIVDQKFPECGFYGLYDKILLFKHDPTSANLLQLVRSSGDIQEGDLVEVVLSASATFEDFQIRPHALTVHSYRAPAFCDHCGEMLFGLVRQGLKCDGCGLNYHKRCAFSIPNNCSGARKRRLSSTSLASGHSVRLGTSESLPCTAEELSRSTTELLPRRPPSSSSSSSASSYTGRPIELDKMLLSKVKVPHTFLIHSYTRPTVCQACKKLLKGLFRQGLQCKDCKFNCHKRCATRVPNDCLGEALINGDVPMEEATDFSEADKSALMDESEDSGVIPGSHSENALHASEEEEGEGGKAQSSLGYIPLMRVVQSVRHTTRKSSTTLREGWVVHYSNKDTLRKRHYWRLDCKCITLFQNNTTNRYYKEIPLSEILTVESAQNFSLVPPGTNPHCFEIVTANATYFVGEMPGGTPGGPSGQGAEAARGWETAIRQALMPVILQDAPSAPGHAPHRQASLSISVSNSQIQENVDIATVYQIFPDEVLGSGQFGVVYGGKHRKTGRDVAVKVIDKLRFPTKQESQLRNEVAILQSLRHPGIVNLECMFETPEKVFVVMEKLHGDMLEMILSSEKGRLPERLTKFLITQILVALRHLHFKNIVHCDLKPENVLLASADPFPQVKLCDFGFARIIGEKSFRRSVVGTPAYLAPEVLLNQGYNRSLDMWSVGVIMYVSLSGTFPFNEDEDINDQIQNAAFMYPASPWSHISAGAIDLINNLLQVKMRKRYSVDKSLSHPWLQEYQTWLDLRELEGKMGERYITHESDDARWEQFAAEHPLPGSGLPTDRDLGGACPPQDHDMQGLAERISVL

SGK = target: T3, SGK (Homo sapiens, UniProt O00141)
T3 construct: purchased Carna Biosciences
T3 sequence (O00141 1-431): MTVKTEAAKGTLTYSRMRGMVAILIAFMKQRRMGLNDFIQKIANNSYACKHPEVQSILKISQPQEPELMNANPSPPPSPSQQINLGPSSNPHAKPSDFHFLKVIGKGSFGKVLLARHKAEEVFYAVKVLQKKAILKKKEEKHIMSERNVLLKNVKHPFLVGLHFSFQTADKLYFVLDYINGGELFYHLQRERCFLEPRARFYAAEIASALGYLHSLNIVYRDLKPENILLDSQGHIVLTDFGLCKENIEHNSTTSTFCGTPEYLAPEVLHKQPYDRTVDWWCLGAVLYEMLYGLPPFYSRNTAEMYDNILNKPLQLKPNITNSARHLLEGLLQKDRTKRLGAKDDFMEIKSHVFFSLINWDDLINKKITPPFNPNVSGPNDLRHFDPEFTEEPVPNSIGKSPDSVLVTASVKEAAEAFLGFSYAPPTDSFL

EPHA3 = target: T4, EPHA3 (Homo sapiens, UniProt P29320)
T4 construct: purchased Carna Biosciences
T4 sequence (P29320 21-983): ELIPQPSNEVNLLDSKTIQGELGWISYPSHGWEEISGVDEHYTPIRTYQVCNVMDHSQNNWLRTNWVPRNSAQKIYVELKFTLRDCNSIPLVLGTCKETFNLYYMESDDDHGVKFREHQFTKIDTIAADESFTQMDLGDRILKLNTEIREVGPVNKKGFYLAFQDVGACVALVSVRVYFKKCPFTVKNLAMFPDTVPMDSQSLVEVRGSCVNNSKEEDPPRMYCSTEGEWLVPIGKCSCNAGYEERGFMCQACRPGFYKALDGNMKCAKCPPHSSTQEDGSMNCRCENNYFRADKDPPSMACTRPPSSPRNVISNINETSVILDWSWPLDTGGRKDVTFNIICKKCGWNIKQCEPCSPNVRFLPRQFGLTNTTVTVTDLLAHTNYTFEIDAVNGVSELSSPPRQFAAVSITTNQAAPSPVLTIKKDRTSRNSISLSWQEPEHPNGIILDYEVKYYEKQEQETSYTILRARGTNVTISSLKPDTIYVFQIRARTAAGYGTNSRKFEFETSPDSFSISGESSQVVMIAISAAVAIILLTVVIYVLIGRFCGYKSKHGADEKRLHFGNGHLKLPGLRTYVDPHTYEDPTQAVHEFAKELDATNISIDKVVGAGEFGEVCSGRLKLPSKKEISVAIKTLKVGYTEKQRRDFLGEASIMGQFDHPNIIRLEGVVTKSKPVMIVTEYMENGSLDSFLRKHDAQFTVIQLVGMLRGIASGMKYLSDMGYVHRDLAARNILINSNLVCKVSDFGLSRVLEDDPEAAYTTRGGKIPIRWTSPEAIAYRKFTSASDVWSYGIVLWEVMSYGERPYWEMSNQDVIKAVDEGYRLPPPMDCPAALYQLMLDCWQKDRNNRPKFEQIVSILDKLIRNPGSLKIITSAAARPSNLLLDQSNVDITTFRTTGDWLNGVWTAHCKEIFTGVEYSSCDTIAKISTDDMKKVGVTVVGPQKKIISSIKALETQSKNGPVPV

CDC2/CycB1 = target: T5, CDC2/CycB1 (Homo sapiens, UniProt P06493)
T5 construct: purchased Carna Biosciences
T5 sequence (P06493 whole entry): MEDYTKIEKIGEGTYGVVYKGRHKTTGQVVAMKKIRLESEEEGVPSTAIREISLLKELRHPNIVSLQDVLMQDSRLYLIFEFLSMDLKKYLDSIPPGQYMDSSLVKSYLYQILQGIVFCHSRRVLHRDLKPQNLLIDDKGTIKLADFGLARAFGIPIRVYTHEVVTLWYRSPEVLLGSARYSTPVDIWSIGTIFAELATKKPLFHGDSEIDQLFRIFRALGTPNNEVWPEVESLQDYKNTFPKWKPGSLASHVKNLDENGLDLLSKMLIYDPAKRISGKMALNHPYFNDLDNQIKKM
T5 sequence (P14635 whole entry partner): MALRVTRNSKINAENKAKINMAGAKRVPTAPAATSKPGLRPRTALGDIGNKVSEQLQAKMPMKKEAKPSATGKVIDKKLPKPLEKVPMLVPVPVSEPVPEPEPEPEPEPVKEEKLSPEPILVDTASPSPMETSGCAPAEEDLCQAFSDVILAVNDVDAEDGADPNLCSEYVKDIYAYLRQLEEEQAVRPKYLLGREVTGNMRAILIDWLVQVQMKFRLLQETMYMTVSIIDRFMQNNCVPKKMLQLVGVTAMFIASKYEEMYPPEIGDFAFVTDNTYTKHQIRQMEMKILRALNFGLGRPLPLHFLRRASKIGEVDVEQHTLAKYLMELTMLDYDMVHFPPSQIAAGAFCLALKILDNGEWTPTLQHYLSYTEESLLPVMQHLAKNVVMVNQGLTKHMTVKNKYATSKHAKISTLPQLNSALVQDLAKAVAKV

Structure (SMILES): CC#CC(=O)N1CCC[C@H]1c1nc(-c2ccc(C(=O)Nc3ccccn3)cc2)c2c(N)nccn12 [acalabrutinib]
- Percentage inhibition of kinase enzyme activity (SGK3): -11.85%
- Percentage inhibition of kinase enzyme activity (PKD2): -9.88%
- Percentage inhibition of kinase enzyme activity (SGK): -5.11%
- Percentage inhibition of kinase enzyme activity (EPHA3): -2.07%
- Percentage inhibition of kinase enzyme activity (CDC2/CycB1): -0.40%

Structure (SMILES): C=CC(=O)N1CCC[C@@H](n2nc(-c3ccc(Oc4ccccc4)cc3)c3c(N)ncnc32)C1 [ibrutinib]
- Percentage inhibition of kinase enzyme activity (SGK3): 0.58%
- Percentage inhibition of kinase enzyme activity (PKD2): -3.20%
- Percentage inhibition of kinase enzyme activity (SGK): -21.37%
- Percentage inhibition of kinase enzyme activity (EPHA3): 3.80%
- Percentage inhibition of kinase enzyme activity (CDC2/CycB1): -1.03%

Structure (SMILES): O=C(c1ccc(Oc2ccccc2)cc1Cl)c1c[nH]c2ncnc(N[C@@H]3CC[C@@H](CO)OC3)c12 [nemtabrutinib]
- Percentage inhibition of kinase enzyme activity (SGK3): -3.28%
- Percentage inhibition of kinase enzyme activity (PKD2): 7.65%
- Percentage inhibition of kinase enzyme activity (SGK): 1.16%
- Percentage inhibition of kinase enzyme activity (EPHA3): 50.57%
- Percentage inhibition of kinase enzyme activity (CDC2/CycB1): -7.65%

Structure (SMILES): COc1ccc(F)cc1C(=O)NCc1ccc(-c2nn([C@@H](C)C(F)(F)F)c(N)c2C(N)=O)cc1 [pirtobrutinib]
- Percentage inhibition of kinase enzyme activity (SGK3): -2.68%
- Percentage inhibition of kinase enzyme activity (PKD2): -6.50%
- Percentage inhibition of kinase enzyme activity (SGK): 3.55%
- Percentage inhibition of kinase enzyme activity (EPHA3): -5.46%
- Percentage inhibition of kinase enzyme activity (CDC2/CycB1): -10.48%

Structure (SMILES): C=CC(=O)N1CCC([C@@H]2CCNc3c(C(N)=O)c(-c4ccc(Oc5ccccc5)cc4)nn32)CC1 [zanubrutinib]
- Percentage inhibition of kinase enzyme activity (SGK): -0.67%
- Percentage inhibition of kinase enzyme activity (EPHA3): -0.20%
